Results reported in BindingDB's records for doi:10.1111/j.1747-0285.2008.00719.x (The Burnham Institute For Medical Research, 2008).

molecular target: T1, Phosducin-like protein 3 (Homo sapiens, UniProt Q9H2J4); assay: NMR Screening Assay; conditions: pH 7.5; 27 °C
T1 sequence (Q9H2J4 whole entry): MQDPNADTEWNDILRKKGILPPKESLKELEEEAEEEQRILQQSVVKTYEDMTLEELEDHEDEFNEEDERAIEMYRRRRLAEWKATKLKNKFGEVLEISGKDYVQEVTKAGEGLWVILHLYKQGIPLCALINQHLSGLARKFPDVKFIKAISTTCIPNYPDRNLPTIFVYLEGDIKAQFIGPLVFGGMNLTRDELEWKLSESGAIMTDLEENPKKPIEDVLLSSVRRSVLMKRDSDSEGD
From the text: NMR-based screen of potential binders by using 1D Aliphatic 1H NMR experiment to investigate the potential role of the c-VIAF as a possible drug target viral infections validation and functional studies.

Compound	Kd
CCOC(=O)Cn1cnc2sc3c(c2c1=O)CCCC3 [BI-86-E6]	16.5 µM
CCOC(=O)Cn1cnc2sc3c(c2c1=O)CCC3 [2-(1-keto-7,8-dihydro-6H-cyclopenta[2,3]thieno[2,4-d]pyrimidin-2-yl)acetic acid ethyl ester]	227 µM
CCOC(=O)C(C)n1cnc2sc3c(c2c1=O)CCCC3 (configuration not stated) [BI-86-E12]	76 µM
O=C(Cn1cnc2sc3c(c2c1=O)CCCC3)OCc1ccccc1 [BI-86-F2]	> 1000 µM
O=c1[nH]nnc2sc3c(c12)CCCC3 [BI-86-F3]	> 1000 µM
CC(C)COC(=O)Cn1cnc2sc3c(c2c1=O)CCCC3 [BI-86-E11]	> 1000 µM
CCOC(=O)C(CC)n1cnc2sc3c(c2c1=O)CCCC3 (configuration not stated) [BI-86-E8]	> 1000 µM
